Test results published in patent publication US12495798B2, “Nicotinamide compound and herbicidal composition comprising compound” (KOREA RESEARCH INSTITUTE OF CHEMICAL TECHNOLOGY, priority 2019, dated 2025).

Key:
Assay type in all cases: in vivo
barnyard grass [1] = assay: Herbicidal activity test against upland field weeds (foliar treatment test); set-up: key to Foliar treatment herbicidal activity, barnyard grass: 0 (no control); 100 (complete control); conditions: 50 g ai/ha, scale 0-100; for pest or weed control at 50 g/ha: Echinochloa crus-galli
Procedure, shortened: (§1)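 Visual 0–100 control ratings relative to untreated plants, taken 14 (or 21) days after spraying foliage at 50 or 75 g a.i./ha. Spray solution: 50% acetone with 0.1% Tween-20; plants kept in greenhouse at 30±5 °C, 14 h light/10 h dark.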

bindweed [2] = assay: as above; set-up: key to Foliar treatment herbicidal activity, Bindweed: 0 (no control); 100 (complete control); conditions: 50 g ai/ha, scale 0-100
Procedure, shortened: as §1

black nightshade [3] = assay: as above; set-up: key to Foliar treatment herbicidal activity, black nightshade: 0 (no control); 100 (complete control); conditions: 50 g ai/ha, scale 0-100
Procedure, shortened: as §1

sorghum [4] = assay: as above; conditions: 50 g ai/ha, scale 0-100; for plant injury at 50 g/ha: Sorghum
Procedure, shortened: as §1

wheat = assay: Phytotoxicity test for upland field crops (foliar treatment test); set-up: key: 0 (no harm); 9 (complete withered)
Procedure, shortened: (§2)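 Post-emergence spray at 19–300 g a.i./ha (acetone/Tween-20 diluent, 100 ml/m²) onto greenhouse-grown plants. Damage rated 7 and 14 (optionally 21) days later on a 0–9 scale relative to untreated plants.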

corn = assay: as above; set-up: key: 0 (no harm); 9 (complete withered)
Procedure, shortened: as §2

barnyard grass [5] = assay: Herbicidal activity test against upland field weeds (soil treatment test); set-up: key to Soil treatment herbicidal activity, barnyard grass: 0 (no control); 100 (complete control); conditions: 50 g ai/ha, scale 0 (no control) to 100 (complete control)
Description: (§3) Experimental Example 2: Herbicidal Activity Test Against Upland Field Weeds (Soil Treatment Test) Soil treatment was performed as follows: After filling a square plastic pot having a surface area of 350 cm^2 with sandy loam mixed with 1 g per pot (350 cm^2) of horticultural mixed fertilizer (N:P:K=11:10:11), seeds (10˜15 grains) or rootstocks (2 pieces) of 5 kinds of grassy weeds of sorghum, barnyard grass, quack grass, crabgrass, fall panicum, and 5 kinds of broadleaf weeds of black nightshade, indian jointvetch, velvetleaf, cocklebur, bindweed, which had been stored in a low temperature (6° C.), were sown. The day after sowing, test compound solutions were made by diluting with a preparation solution (including 50% acetone, 0.1% Tween-20) so that the final treatment amount of the test compounds was 50 or 75 g a.i./ha. The prepared test compound solution was used for treating soil surface by hand-spraying 14 mL per pot in a fume hood. After the treatment, it was managed under the same greenhouse conditions (average temperature 30±5° C., light/dark=14/10 hours), and after 14 days (after 21 days if necessary), the external symptoms and efficacy were investigated according to the scale of 0 (no control) to 100 (complete control). The results of Table 8 were obtained by evaluating weed control value to the untreated control by conducting visual assessment.

bindweed [6] = assay: as above; set-up: key to Soil treatment herbicidal activity, Bindweed: 0 (no control); 100 (complete control); conditions: 50 g ai/ha, scale 0 (no control) to 100 (complete control)
Description: as §3

indian jointvetch [7] = assay: Herbicidal activity test against upland field weeds (foliar treatment test); set-up: key to Foliar treatment herbicidal activity, Indian jointvetch: 0 (no control); 100 (complete control); conditions: 50 g ai/ha, scale 0-100
Procedure, shortened: as §1

crabgrass [8] = assay: as above; set-up: key to Foliar treatment herbicidal activity, Crabgrass: 0 (no control); 100 (complete control); conditions: 50 g ai/ha, scale 0-100
Procedure, shortened: as §1

sorghum [9] = assay: Herbicidal activity test against upland field weeds (soil treatment test); set-up: key to Soil treatment herbicidal activity, Sorghum: 0 (no control); 100 (complete control); conditions: 50 g ai/ha, scale 0 (no control) to 100 (complete control)
Description: as §3

indian jointvetch [10] = assay: as above; set-up: key to Soil treatment herbicidal activity, Indian jointvetch: 0 (no control); 100 (complete control); conditions: 50 g ai/ha, scale 0 (no control) to 100 (complete control)
Description: as §3

crabgrass [11] = assay: as above; set-up: key to Soil treatment herbicidal activity, Crabgrass: 0 (no control); 100 (complete control); conditions: 50 g ai/ha, scale 0 (no control) to 100 (complete control)
Description: as §3

quack grass [12] = assay: Herbicidal activity test against upland field weeds (foliar treatment test); set-up: key to Foliar treatment herbicidal activity, quack grass: 0 (no control); 100 (complete control); conditions: 50 g ai/ha, scale 0-100
Procedure, shortened: as §1

fall panicum [13] = assay: Herbicidal activity test against upland field weeds (soil treatment test); set-up: key to Soil treatment herbicidal activity, Fall panicum: 0 (no control); 100 (complete control); conditions: 50 g ai/ha, scale 0 (no control) to 100 (complete control)
Description: as §3

fall panicum [14] = assay: Herbicidal activity test against upland field weeds (foliar treatment test); conditions: 50 g ai/ha, scale 0-100; for pest or weed control at 50 g/ha: Panicum dichotomiflorum
Procedure, shortened: as §1

velvetleaf [15] = assay: as above; set-up: key to Foliar treatment herbicidal activity, velvet leaf: 0 (no control); 100 (complete control); conditions: 50 g ai/ha; for Foliar treatment herbicidal activity, velvet leaf: scale 0-100
Procedure, shortened: as §1

black nightshade [16] = assay: Herbicidal activity test against upland field weeds (soil treatment test); set-up: key to Soil treatment herbicidal activity, black nightshade: 0 (no control); 100 (complete control); conditions: 50 g ai/ha, scale 0 (no control) to 100 (complete control); for pest or weed control at 50 g/ha: Solanum nigrum
Description: as §3

velvetleaf [17] = assay: as above; set-up: key to Soil treatment herbicidal activity, velvet leaf: 0 (no control); 100 (complete control); conditions: 50 g ai/ha, scale 0 (no control) to 100 (complete control)
Description: as §3

quack grass [18] = assay: as above; set-up: key to Soil treatment herbicidal activity, quack grass: 0 (no control); 100 (complete control); conditions: 50 g ai/ha, scale 0 (no control) to 100 (complete control)
Description: as §3

cocklebur [19] = assay: Herbicidal activity test against upland field weeds (foliar treatment test); conditions: 50 g ai/ha, scale 0-100; for pest or weed control at 50 g/ha: Xanthium strumarium
Procedure, shortened: as §1

cocklebur [20] = assay: Herbicidal activity test against upland field weeds (soil treatment test); set-up: key to Soil treatment herbicidal activity, Cocklebur: 0 (no control); 100 (complete control); conditions: 50 g ai/ha, scale 0 (no control) to 100 (complete control)
Description: as §3

[21] = 50 g ai/ha, Wheat (7 days after treatment)
[22] = 50 g ai/ha, Wheat (14 days after treatment)
[23] = 100 g ai/ha, Wheat (7 days after treatment)
[24] = 100 g ai/ha, Wheat (14 days after treatment)
[25] = 50 g ai/ha, Corn (7 days after treatment)
[26] = 50 g ai/ha, Corn (14 days after treatment)
[27] = 100 g ai/ha, Corn (7 days after treatment)
[28] = 100 g ai/ha, Corn (14 days after treatment)

COC(=O)OC(C)N(C(=O)c1ccc(C(F)(F)F)nc1CSCc1nnn(C)n1)c1nnnn1C (stereo not drawn) [Compound No. 4-3, methyl(1-(N-(1-methyl-1H-tetrazol-5-yl)-2-((((2-methyl-2H-tetrazol-5-yl)methyl)thio)methyl)-6-(trifluoromethyl)nicotinamido)ethyl)carbonate]
Foliar treatment herbicidal activity, barnyard grass (barnyard grass [1]): 98
Foliar treatment herbicidal activity, Bindweed (bindweed [2]): 100
Foliar treatment herbicidal activity, black nightshade (black nightshade [3]): 100
Foliar treatment herbicidal activity, Sorghum (sorghum [4]): 80
Foliar treatment phytotoxicity, Wheat (wheat; [21]): 0
Foliar treatment phytotoxicity, Wheat (wheat; [22]): 0
Foliar treatment phytotoxicity, Wheat (wheat; [23]): 0
Foliar treatment phytotoxicity, Wheat (wheat; [24]): 0
Foliar treatment phytotoxicity, Corn (corn; [25]): 0
Foliar treatment phytotoxicity, Corn (corn; [26]): 0
Foliar treatment phytotoxicity, Corn (corn; [27]): 1
Foliar treatment phytotoxicity, Corn (corn; [28]): 0
Soil treatment herbicidal activity, barnyard grass (barnyard grass [5]): 0
Soil treatment herbicidal activity, Bindweed (bindweed [6]): 0
Foliar treatment herbicidal activity, Indian jointvetch (indian jointvetch [7]): 100
Foliar treatment herbicidal activity, Crabgrass (crabgrass [8]): 98
Soil treatment herbicidal activity, Sorghum (sorghum [9]): 0
Soil treatment herbicidal activity, Indian jointvetch (indian jointvetch [10]): 0
Soil treatment herbicidal activity, Crabgrass (crabgrass [11]): 98
Foliar treatment herbicidal activity, quack grass (quack grass [12]): 0
Soil treatment herbicidal activity, Fall panicum (fall panicum [13]): 0
Foliar treatment herbicidal activity, Fall panicum (fall panicum [14]): 80
Foliar treatment herbicidal activity, velvet leaf (velvetleaf [15]): 98
Soil treatment herbicidal activity, black nightshade (black nightshade [16]): 100
Soil treatment herbicidal activity, velvet leaf (velvetleaf [17]): 50
Soil treatment herbicidal activity, quack grass (quack grass [18]): 0
Foliar treatment herbicidal activity, Cocklebur (cocklebur [19]): 98

CC(C)OC(=O)OC(C)N(C(=O)c1ccc(C(F)(F)F)nc1COCc1nnn(C)n1)c1nnnn1C (stereo not drawn) [Compound No. 4-12, isopropyl(1-(N-(1-methyl-1H-tetrazol-5-yl)-2-(((2-methyl-2H-tetrazol-5-yl)methoxy)methyl)-6-(trifluoromethyl)nicotinamido)ethyl)carbonate]
Foliar treatment herbicidal activity, barnyard grass (barnyard grass [1]): 100
Foliar treatment herbicidal activity, Bindweed (bindweed [2]): 100
Foliar treatment herbicidal activity, black nightshade (black nightshade [3]): 100
Foliar treatment herbicidal activity, Sorghum (sorghum [4]): 70
Soil treatment herbicidal activity, barnyard grass (barnyard grass [5]): 100
Soil treatment herbicidal activity, Bindweed (bindweed [6]): 98
Foliar treatment herbicidal activity, Indian jointvetch (indian jointvetch [7]): 98
Foliar treatment herbicidal activity, Crabgrass (crabgrass [8]): 95
Soil treatment herbicidal activity, Sorghum (sorghum [9]): 20
Soil treatment herbicidal activity, Indian jointvetch (indian jointvetch [10]): 40
Soil treatment herbicidal activity, Crabgrass (crabgrass [11]): 100
Foliar treatment herbicidal activity, quack grass (quack grass [12]): 0
Soil treatment herbicidal activity, Fall panicum (fall panicum [13]): 90
Foliar treatment herbicidal activity, Fall panicum (fall panicum [14]): 98
Foliar treatment herbicidal activity, velvet leaf (velvetleaf [15]): 100
Soil treatment herbicidal activity, black nightshade (black nightshade [16]): 100
Soil treatment herbicidal activity, velvet leaf (velvetleaf [17]): 100
Soil treatment herbicidal activity, quack grass (quack grass [18]): 0
Foliar treatment herbicidal activity, Cocklebur (cocklebur [19]): 98

Cn1nnc(CSCc2nc(C(F)(F)F)ccc2C(=S)Nc2nnnn2C)n1 [Compound No. 2-107, N-(1-methyl-1H-tetrazol-5-yl)-2-((((2-methyl-2H-tetrazol-5-yl)methyl)thio)methyl)-6-(trifluoromethyl)pyridin-3-carbothioamide]
pest or weed control at 50 g/ha (barnyard grass [1]): 70%
pest or weed control at 50 g/ha (bindweed [2]): 98%
Foliar treatment herbicidal activity, black nightshade (black nightshade [3]): 100
plant injury at 50 g/ha (sorghum [4]): 70%
Foliar treatment phytotoxicity, Wheat (wheat; [21]): 3
Foliar treatment phytotoxicity, Wheat (wheat; [22]): 3
Foliar treatment phytotoxicity, Wheat (wheat; [23]): 4
Foliar treatment phytotoxicity, Wheat (wheat; [24]): 3
Foliar treatment phytotoxicity, Corn (corn; [25]): 1
Foliar treatment phytotoxicity, Corn (corn; [26]): 0
Foliar treatment phytotoxicity, Corn (corn; [27]): 0
Foliar treatment phytotoxicity, Corn (corn; [28]): 0
Soil treatment herbicidal activity, barnyard grass (barnyard grass [5]): 0
pest or weed control at 50 g/ha (bindweed [6]): 40%
pest or weed control at 50 g/ha (indian jointvetch [7]): 98%
pest or weed control at 50 g/ha (crabgrass [8]; Digitaria sanguinalis): 95%
plant injury at 50 g/ha (sorghum [9]; Sorghum): 20%
Soil treatment herbicidal activity, Indian jointvetch (indian jointvetch [10]): 0
Soil treatment herbicidal activity, Crabgrass (crabgrass [11]): 0
Foliar treatment herbicidal activity, quack grass (quack grass [12]): 0
Soil treatment herbicidal activity, Fall panicum (fall panicum [13]): 0
pest or weed control at 50 g/ha (fall panicum [14]): 60%
pest or weed control at 50 g/ha (velvetleaf [15]; Abutilon theophrasti, scale 0-100, read-out: Foliar treatment herbicidal activity, velvet leaf): 70%
pest or weed control at 50 g/ha (black nightshade [16]): 70%
Soil treatment herbicidal activity, velvet leaf (velvetleaf [17]): 100
Soil treatment herbicidal activity, quack grass (quack grass [18]): 0
pest or weed control at 50 g/ha (cocklebur [19]): 98%

CSc1nc(COCc2nc(C(F)(F)F)ccc2C(=O)Nc2nnnn2C)nn1C [Compound No. 2-131, N-(1-methyl-1H-tetrazol-5-yl)-2-(((1-methyl-5-(methylthio)-1H-1,2,4-triazol-3-yl)methoxy)methyl)-6-(trifluoromethyl)nicotinamide]
pest or weed control at 50 g/ha (barnyard grass [1]): 98%
Foliar treatment herbicidal activity, black nightshade (black nightshade [3]): 100
plant injury at 50 g/ha (sorghum [4]): 40%
Soil treatment herbicidal activity, barnyard grass (barnyard grass [5]): 0
Soil treatment herbicidal activity, Cocklebur (cocklebur [20]): 0
pest or weed control at 50 g/ha (indian jointvetch [7]): 70%
Foliar treatment herbicidal activity, Crabgrass (crabgrass [8]): 100
Soil treatment herbicidal activity, Sorghum (sorghum [9]): 0
Soil treatment herbicidal activity, Indian jointvetch (indian jointvetch [10]): 100
Soil treatment herbicidal activity, Crabgrass (crabgrass [11]): 0
pest or weed control at 50 g/ha (quack grass [12]): 10%
pest or weed control at 50 g/ha (fall panicum [14]): 70%
Foliar treatment herbicidal activity, velvet leaf (velvetleaf [15]): 100
pest or weed control at 50 g/ha (black nightshade [16]): 98%
pest or weed control at 50 g/ha (velvetleaf [17]; Abutilon theophrasti, read-out: Soil treatment herbicidal activity, velvet leaf): 98%
Soil treatment herbicidal activity, quack grass (quack grass [18]): 0
pest or weed control at 50 g/ha (cocklebur [19]): 80%
